Measured values as given in patent publication EP4527386A1, “ANTI-CANCER PHARMACEUTICAL COMPOSITION COMPRISING REGORAFENIB” (Eberhard-Karls-Universität Tübingen Universitätsklinikum, priority 2023, dated 2025).

Columns and labels:
[1] = tested on: SMA560 cells; assay: in vivo glioma model, intracranially transplanted SMA560 cells; conditions: VM/Dk mice intracranially transplanted with SMA560 cells; treated for three weeks; experiment stopped at day 120; solvent control 58 days
Experimental: For drugs targeting Bcl2 family members (navitoclax, venetoclax), MEK1/MAP2K1 (selumetinib, trametinib), integrins (cilengitide), and ARAF (sorafenib) further assays were performed to analyze the synergistic effect in combination with Regorafenib. […] The inventors extracted primary cells from glioblastoma tissue to test our drug combinations ex vivo. Analyzing the combination effect on cell viability of regorafenib and navitoclax on four glioblastoma primary cultures the observed effect of the combination treatment was in each model synergistic compared to the predicted effect calculated from both monotherapies (Figs. 4 E and F). The combination of navitoclax and regorafenib was further validated in vivo in VM/Dk mice intracranially transplanted with SMA560 cells (data not shown). The mice were treated either with the drug combination, regorafenib, or navitoclax monotherapies, or a solvent control for three weeks. Time until onset of neurological symptoms was observed. The solvent control group reached its median after 58 days, navitoclax monotherapy after 60 days, and regorafenib monotherapy after 67 days.

[2] = tested on: glioma cell lines; assay: 72-hour acute cytotoxicity synergy assay in combination with regorafenib (ZIP synergy score); assay type: cell-based
Experimental: The combined inhibition of a resistance mechanism or a synthetic lethal interactor with regorafenib treatment should enhance the effect of regorafenib alone. Therefore, drugs targeting the different identified gene products were used in acute cytotoxicity synergy assays in combination with regorafenib to analyze the synergistic effect of drug combinations. Each of the 15 drugs was tested in a 72-hour acute cytotoxicity synergy assay in combination with regorafenib on six glioma cell lines in two independent runs. The calculated ZIP synergy score for each combination indicates if a combination is synergistic, the higher the score the stronger is the synergism. For the heatmaps shown in Fig. 3 the synergy scores were normalized within each cell line taking the highest synergy score detected in this cell line as 100% and a synergy score of 0 as 0%. For each target shown here identified in the CRISPR/Cas9 screens, the inventors detected a synergistic effect of the drug combination (for at least one drug when several drugs for the same target were tested).

[3] = tested on: glioma cell lines; assay: clonogenic survival assay; assay type: cell-based; conditions: combination with regorafenib vs regorafenib monotherapy

SMILES | Time until onset of neurological symptoms (median) [1] | synergistic effect in acute cytotoxicity synergy assays (ZIP synergy score) [2] | number of clones in clonogenic survival assays, combination treatment compared with regorafenib monotherapy [3]
CC1(C)CCC(c2ccc(Cl)cc2)=C(CN2CCN(c3ccc(C(=O)NS(=O)(=O)c4ccc(N[C@H](CCN5CCOCC5)CSc5ccccc5)c(S(=O)(=O)C(F)(F)F)c4)cc3)CC2)C1 [navitoclax] | 60 days | synergistic effects | significantly reduced numbers of clones
CNC(=O)c1cc(Oc2ccc(NC(=O)Nc3ccc(Cl)c(C(F)(F)F)c3)c(F)c2)ccn1 [regorafenib] | 67 days | – | –
CC1(C)CCC(CN2CCN(c3ccc(C(=O)NS(=O)(=O)c4ccc(NCC5CCOCC5)c([N+](=O)[O-])c4)c(Oc4cnc5[nH]ccc5c4)c3)CC2)=C(c2ccc(Cl)cc2)C1 [venetoclax] | – | synergistic effects | –
